This is an account of results in patent US20260085062A1, “NOVEL COMPOUNDS AS CK2 INHIBITORS” (Cambridge Enterprise Limited, priority 2022, published 2026).

The target in one test is T1, CLK2 (Homo sapiens, UniProt P49760).
T1 construct: purchased Carna Biosciences 04-127
Description: Biochemical assay for inhibitors of CLK2 kinase activity (ADP-Glo). As to conditions: 20 nM CLK2, 50 μM peptide substrate, 100 μM ATP, read-out: Assay 2: CLK2 Enzyme IC50. For orientation: ADP-Glo turns the ADP formed in a reaction into a luminescent signal.

The next test deals with T2, intracellular CK2α (Homo sapiens, UniProt P19784).
T2 construct: host or cells: HCT116 (ATCC CCL-247)
T2 sequence (P19784 whole entry): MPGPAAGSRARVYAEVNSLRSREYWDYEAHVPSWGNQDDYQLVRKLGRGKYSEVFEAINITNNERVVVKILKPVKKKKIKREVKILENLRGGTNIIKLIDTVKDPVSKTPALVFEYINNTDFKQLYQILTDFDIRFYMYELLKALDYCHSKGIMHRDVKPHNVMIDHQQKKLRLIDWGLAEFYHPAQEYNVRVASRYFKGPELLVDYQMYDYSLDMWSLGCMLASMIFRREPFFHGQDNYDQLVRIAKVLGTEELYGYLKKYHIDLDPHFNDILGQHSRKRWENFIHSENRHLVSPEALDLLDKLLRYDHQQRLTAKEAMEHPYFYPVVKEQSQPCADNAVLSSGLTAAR
Description: Cell-based NanoBRET assay for inhibitor binding to intracellular CK2α. As to conditions: HCT116 cells transiently transfected with CSNK2A2-NanoLuc fusion vector; Tracer K-5; 2 h; read-out: Assay 3: NanoBRET ™ assay for binding to intracellular CK2α. The essentials:
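Apparent affinity came from BRET ratio (acceptor/donor ×1,000), with donor read at 450 nm and acceptor at 610 or 630 nm. Compounds competed off a tracer added at fixed concentration to cells carrying a NanoLuc-CK2α fusion.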
A general note: BRET reads energy transfer from a luciferase to a nearby fluorophore.

Another test has as its target T3, CK2α (Homo sapiens, UniProt P68400).
T3 construct: CK2α (residues 2-329) was produced in Escherichia coli BL21 (DE3) for kinase activity screening; His6 (N, cleaved yes); made in house; host or cells: Escherichia coli BL21 (DE3)
T3 sequence (P68400 2-329): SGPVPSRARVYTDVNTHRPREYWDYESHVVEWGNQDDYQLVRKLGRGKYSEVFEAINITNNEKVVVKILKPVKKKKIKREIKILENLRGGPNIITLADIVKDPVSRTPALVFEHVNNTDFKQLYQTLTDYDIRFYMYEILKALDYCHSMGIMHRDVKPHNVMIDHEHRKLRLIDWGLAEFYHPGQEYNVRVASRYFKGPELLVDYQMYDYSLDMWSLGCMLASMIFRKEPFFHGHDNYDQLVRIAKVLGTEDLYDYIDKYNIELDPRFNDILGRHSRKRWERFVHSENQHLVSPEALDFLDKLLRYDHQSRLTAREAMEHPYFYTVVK
Description: Biochemical assay for inhibitors of CK2α kinase activity (ADP-Glo). As to conditions: 0.2 nM CK2α, 50 μM peptide substrate, 15 μM ATP, read-out: Assay 1: CK2α Enzyme IC50.

T1 sequence (P49760 whole entry): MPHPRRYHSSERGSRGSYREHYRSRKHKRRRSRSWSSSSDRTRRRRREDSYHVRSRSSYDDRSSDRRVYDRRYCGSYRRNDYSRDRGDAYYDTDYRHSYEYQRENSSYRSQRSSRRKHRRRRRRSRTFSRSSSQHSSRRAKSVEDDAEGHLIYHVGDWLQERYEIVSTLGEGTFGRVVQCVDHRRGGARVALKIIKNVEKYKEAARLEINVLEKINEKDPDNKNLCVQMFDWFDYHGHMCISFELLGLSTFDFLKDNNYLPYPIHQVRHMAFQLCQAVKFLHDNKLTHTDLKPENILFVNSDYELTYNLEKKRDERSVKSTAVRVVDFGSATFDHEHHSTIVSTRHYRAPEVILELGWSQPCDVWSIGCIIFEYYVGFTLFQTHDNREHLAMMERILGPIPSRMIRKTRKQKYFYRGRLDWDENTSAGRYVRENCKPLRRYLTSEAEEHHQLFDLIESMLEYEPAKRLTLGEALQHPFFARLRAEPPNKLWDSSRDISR

Take `c1cc2[nH]c(CNCCCCOC3CN(c4cc(-c5cnoc5)cc5[nH]ncc45)C3)cc2cc1OC1CCC1` [Example 119, N-((5-cyclobutoxy-1H-indol-2-yl)methyl)-4-((1-(6-(isoxazol-4-yl)-1H-indazol-4-yl)azetidin-3-yl)oxy)butan-1-amine]: the figures for the IC50 on CLK2, on intracellular CK2α and on CK2α were 617 nM, 1620 nM and 22.6 nM, respectively.

Take `Cc1cnccc1-c1cc(NCCCNC(=O)CCNCc2ccc(OC(F)(F)F)c(Cl)c2)c2cn[nH]c2c1` [Example 165, 3-((3-chloro-4-(trifluoromethoxy)benzyl)amino)-N-(3-((6-(3-methylpyridin-4-yl)-1H-indazol-4-yl)amino)propyl)propanamide]: the IC50 on CLK2 amounted to 7320 nM; on intracellular CK2α it was 3740 nM; at CK2α it was 72.9 nM.

In the case of `N#Cc1nncn1-c1cc(NCCCNC(=O)CCNCc2ccc(OC(F)(F)F)c(Cl)c2)c2cn[nH]c2c1` [Example 177, 3-((3-chloro-4-(trifluoromethoxy)benzyl)amino)-N-(3-((6-(3-cyano-4H-1,2,4-triazol-4-yl)-1H-indazol-4-yl)amino)propyl)propanamide], the values for the IC50 at CLK2, at intracellular CK2α and at CK2α were 1250 nM, 11700 nM and 56.2 nM, respectively.

`O=C(CCNCc1ccc(OC(F)(F)F)c(Cl)c1)NCCCNc1cc(-c2ncno2)cc2[nH]ncc12` [Example 173, N-(3-((6-(1,2,4-oxadiazol-5-yl)-1H-indazol-4-yl)amino)propyl)-3-((3-chloro-4-(trifluoromethoxy)benzyl)amino)propanamide]: the IC50 at CLK2 was determined as 3170 nM; on intracellular CK2α it was 361 nM; on CK2α, 1.17 nM.

Regarding `OCc1cc(CNCCCCOC2CN(c3cc(-c4ccnnc4)cc4[nH]ncc34)C2)cc(C(F)(F)F)c1` [Example 112, (3-(((4-((1-(6-(pyridazin-4-yl)-1H-indazol-4-yl)azetidin-3-yl)oxy)butyl)amino)methyl)-5-(trifluoromethyl)phenyl)methanol], the IC50 stood at 633 nM at CLK2, 14000 nM on intracellular CK2α and 205 nM at CK2α.

With `O=C(CCNCc1ccc(-c2ccccc2)c(Cl)c1)NCCCNc1cc(-c2cn[nH]n2)cc2[nH]ncc12` [Example 25, N-(3-((6-(2H-1,2,3-triazol-4-yl)-1H-indazol-4-yl)amino)propyl)-3-(((2-chloro-[1,1′-biphenyl]-4-yl)methyl)amino)propanamid], the IC50 at CLK2 is 18.2 nM; at intracellular CK2α, 93.6 nM; on CK2α it was 0.44 nM.

Turning to `FC(F)(F)c1ccc2[nH]c(CNCCCCOC3CN(c4cc(-c5ccnnc5)cc5[nH]ncc45)C3)cc2c1` [Example 140, 4-((1-(6-(pyridazin-4-yl)-1H-indazol-4-yl)azetidin-3-yl)oxy)-N-((5-(trifluoromethyl)-1H-indol-2-yl)methyl)butan-1-amine], the results for the IC50 at CLK2, at intracellular CK2α and at CK2α were 2030 nM, 2800 nM and 10.2 nM, respectively.

In the case of `O=C(CCOCCCNCc1ccc(OC(F)(F)F)c(Cl)c1)Nc1cc(-n2cnnc2)cc2[nH]ncc12` [Example 70, N-(6-(4H-1,2,4-triazol-4-yl)-1H-indazol-4-yl)-3-(3-((3-chloro-4-(trifluoromethoxy)benzyl)amino)propoxy)propanamide], the figures for the IC50 on CLK2, on intracellular CK2α and on CK2α were 1520 nM, above 50000 nM and 256 nM, respectively.

As for `O=C(CCNCc1ccc(-c2ccccc2)c(Cl)c1)NCCCNc1cc(-n2cnnc2)cc2[nH]ncc12` [Example 11, N-(3-((6-(4H-1,2,4-triazol-4-yl)-1H-indazol-4-yl)amino)propyl)-3-(((2-chloro-[1,1′-biphenyl]-4-yl)methyl)amino)propanamide], the results for the IC50 on CLK2, at intracellular CK2α and on CK2α were 31.7 nM, 249 nM and 0.29 nM, respectively.

With `FC(F)(F)c1ccc2[nH]c(CNCCCCOCCNc3cccc4[nH]ncc34)cc2c1` [Example 94], the IC50 on CLK2 was 5790 nM; on intracellular CK2α, 29300 nM; at CK2α, 203 nM.

On to `Cc1cn(-c2cc(NCCCNC(=O)CCNCc3ccc(-c4ccccc4)c(Cl)c3)c3cn[nH]c3c2)cn1` [Example 29, 3-(((2-chloro-[1,1′-biphenyl]-4-yl)methyl)amino)-N-(3-((6-(4-methyl-1H-imidazol-1-yl)-1H-indazol-4-yl)amino)propyl)propanamide], for which the figures for the IC50 on CLK2, on intracellular CK2α and at CK2α were 649 nM, 2090 nM and 22.1 nM, respectively.

`O=C(CCNCc1ccc(-c2ccccc2)c(Cl)c1)NCCCNc1cc(N2CCOCC2)cc2[nH]ncc12` [Example 78, 3-(((2-chloro-[1,1′-biphenyl]-4-yl)methyl)amino)-N-(3-((6-morpholino-1H-indazol-4-yl)amino)propyl)propanamide]: the IC50 is above 50000 nM on CLK2, above 50000 nM at intracellular CK2α and 472 nM at CK2α.

Take `C[C@@H](CCCOCCNc1cc(-n2cnnc2)cc2[nH]ncc12)NCc1cc(CO)cc(OC(F)(F)F)c1` [Example 192, (S)-(3-(((5-(2-((6-(4H-1,2,4-triazol-4-yl)-1H-indazol-4-yl)amino)ethoxy)pentan-2-yl)amino)methyl)-5-(trifluoromethoxy)phenyl)methanol]: the IC50 on CLK2 stood at 665 nM; on intracellular CK2α it was 377 nM; on CK2α, 10.6 nM.

`O=C(CCNCc1ccc(-c2ccccc2)c(Cl)c1)NCCCNc1cccc2[nH]ncc12` [Example 61, N-(3-((1H-indazol-4-yl)amino)propyl)-3-(((2-chloro-[1,1′-biphenyl]-4-yl)methyl)amino)propenamide]: the IC50 at CLK2 was found to be 3470 nM; on intracellular CK2α, 176 nM; at CK2α it was 104 nM.

`N#Cc1cc(NCCCNC(=O)CCNCc2ccc(-c3ccccc3)c(Cl)c2)c2cn[nH]c2c1` [Example 10, 3-(((2-chloro-[1,1′-biphenyl]-4-yl)methyl)amino)-N-(3-((6-cyano-1H-indazol-4-yl)amino)propyl)propanamide]: the IC50 was 132 nM on CLK2, 449 nM at intracellular CK2α and 6.96 nM on CK2α.

Regarding `FC(F)(F)c1ccc2[nH]c(CNCCCCOCCNc3cc(-c4ccnnc4)cc4[nH]ncc34)cc2c1` [Example 93, 6-(pyridazin-4-yl)-N-(2-(4-(((5-(trifluoromethyl)-1H-indol-2-yl)methyl)amino)butoxy)ethyl)-1H-indazol-4-amine], the IC50 was found to be 569 nM at CLK2, 180 nM at intracellular CK2α and 0.77 nM at CK2α.

In the case of `c1cc(-c2cc(N3CC(OCCCCNCc4cc5cc(OC6CCC6)ccc5[nH]4)C3)c3cn[nH]c3c2)cnn1` [Example 109, N-((5-cyclobutoxy-1H-indol-2-yl)methyl)-4-((1-(6-(pyridazin-4-yl)-1H-indazol-4-yl)azetidin-3-yl)oxy)butan-1-amine], the results for the IC50 on CLK2, at intracellular CK2α and at CK2α were 2920 nM, 2810 nM and 42.5 nM, respectively.

With `O=C(CCNCc1ccc(OC(F)(F)F)c(Cl)c1)NCCCNc1cc(-c2nnc[nH]2)cc2[nH]ncc12` [Example 174, N-(3-((6-(4H-1,2,4-triazol-3-yl)-1H-indazol-4-yl)amino)propyl)-3-((3-chloro-4-(trifluoromethoxy)benzyl)amino)propanamide], the IC50 on CLK2 was found to be 5980 nM; on intracellular CK2α, 4640 nM; on CK2α, 7.41 nM.

For the molecule `O=C(CNCCCCNCc1ccc(OC(F)(F)F)c(Cl)c1)Nc1cc(-n2cnnc2)cc2[nH]ncc12` [Example 17, N-(6-(4H-1,2,4-triazol-4-yl)-1H-indazol-4-yl)-2-((4-((3-chloro-4-(trifluoromethoxy)benzyl)amino)butyl)amino)acetamide], the IC50 was found to be 2780 nM on CLK2, 3840 nM at intracellular CK2α and 8.26 nM on CK2α.

As to `N#CCc1cc(F)cc(CNCCCCOC2CN(c3cc(-c4ccnnc4)cc4[nH]ncc34)C2)c1` [Example 113, 2-(3-fluoro-5-(((4-((1-(6-(pyridazin-4-yl)-1H-indazol-4-yl)azetidin-3-yl)oxy)butyl)amino)methyl)phenyl)acetonitrile], the IC50 at CLK2 was determined as 2710 nM; on intracellular CK2α, 8090 nM; at CK2α it was 67.5 nM.

On to `N#CCc1cc(CNCCCCOC2CN(c3cc(-n4cnnc4)cc4[nH]nnc34)C2)cc(OC(F)(F)F)c1` [Example 154, 2-(3-(((4-((1-(6-(4H-1,2,4-triazol-4-yl)-1H-benzo[d][1,2,3]triazol-4-yl)azetidin-3-yl)oxy)butyl)amino)methyl)-5-(trifluoromethoxy)phenyl)acetonitrile], for which the values for the IC50 on CLK2, on intracellular CK2α and at CK2α were 24700 nM, above 50000 nM and 170 nM, respectively.

For `FC(F)(F)Oc1ccc(CNCCCCOCCOc2cc(-c3ccnnc3)cc3[nH]nnc23)cc1Cl` [Example 102, N-(3-chloro-4-(trifluoromethoxy)benzyl)-4-(2-((6-(pyridazin-4-yl)-1H-benzo[d][1,2,3]triazol-4-yl)oxy)ethoxy)butan-1-amine], the IC50 was 43000 nM on CLK2, above 50000 nM at intracellular CK2α and 393 nM at CK2α.
